Measurements: PMC4413215, “New Prenylated Aeruginosin, Microphycin, Anabaenopeptin and Micropeptin Analogues from a Microcystis Bloom Material Collected in Kibbutz Kfar Blum, Israel” (Marine Drugs, 2015)
Read-outs that look alike come from different tables or passages of the source. *1 amine or outer side, *2 acyl side, *3 side chain or, on linkers, in order; H or OH if unused. Where a SMILES comes first, the peptide text is derived from it. Bridges are numbered along the chain shown (N, C = ends). [ ]: non-standard residue; d: D form. NMehTyr = CN[C@@H](CCc1ccc(O)cc1)C(=O)O; hPhe = N[C@@H](CCc1ccccc1)C(=O)O; CO = O=C([*:1])[*:2]

Key:
[1] = target: chymotrypsin (Bos taurus, UniProt P00766); test: Protease inhibition assay: chymotrypsin; assay type: biochemical; conditions: for inhibition of chymotrypsin, in words: discussion of Table 5
Method: (§1) Optical rotation values were obtained on a Jasco P-1010 polarimeter at the sodium D line (589 nm; concentrations are reported in g/100 mL. UV spectra were recorded on an Agilent 8453 spectrophotometer (Santa Clara, California, CA, USA). IR spectra were recorded on a Bruker Tensor 27 FT-IR instrument (Billerica, Massachusetts, MA, USA). NMR spectra were recorded on a Bruker DRX-500 spectrometer at 500.13 MHz for ^1H and 125.76 MHz for ^13C and a Bruker Avance 400 Spectrometer at 400.13 MHz for ^1H, 100.62 MHz for ^13C (Billerica, Massachusetts, MA, USA). DEPT, COSY-45, gTOCSY, gROESY, gHSQC, gHMQC and gHMBC spectra were recorded using standard Bruker pulse sequences. Mass spectra and MS/MS analyses were recorded on a Waters MaldiSynapt instrument (Milford, Massachusetts, MA, USA). HPLC separations were performed on a Jasco HPLC system (Halifax, Nova-Scotia, NS, Canada) (Model PU-2080-plus pump, Model LG-2080-04 Quaternary gradient unit and Model MD-2010-plus Multi-wavelength detector). An Elisa ELx808 reader (Bio-Tek Instruments, Inc (Winooski, VT, USA)) was used for protease inhibition assays.
(§2) The procedures used to determine the inhibitory activity of the new compounds on trypsin and chymotrypsin were described in a previous paper. The range of concentrations used in the assays was between 45.5 μM and 0.011 μM.

[2] = target: T1, trypsin (Bos taurus, UniProt P00760); test: Protease inhibition assay: trypsin; assay type: biochemical; conditions: discussion of Table 5
T1 sequence (P00760 24-246): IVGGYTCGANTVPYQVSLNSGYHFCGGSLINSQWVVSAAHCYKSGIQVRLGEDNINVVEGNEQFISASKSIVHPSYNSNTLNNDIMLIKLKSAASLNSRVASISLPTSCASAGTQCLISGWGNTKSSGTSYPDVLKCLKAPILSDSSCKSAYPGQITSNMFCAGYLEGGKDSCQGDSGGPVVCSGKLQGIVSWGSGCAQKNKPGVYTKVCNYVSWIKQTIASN
Method: as §1, §2

[3] = target: T1, trypsin; parameters: method as in PMID 22280481; conditions: read-out: IC50 (against trypsin); cited from earlier work

SMILES	IC50 [1] [µM]	other results
CCCCCC(=O)N[C@@H](CC(=O)O)C(=O)N[C@@H]1C(=O)N[C@@H](CCCNC(=N)N)C(=O)N[C@H]2CC[C@@H](OC)N(C2=O)[C@@H](C(C)C)C(=O)N(C)[C@@H](Cc2ccccc2)C(=O)N[C@@H]([C@@H](C)CC)C(=O)O[C@@H]1C [Micropeptin KB970B (8), Micropeptin KB970B]	> 45.5	
CC[C@H](C)[C@H]1C(=O)N(C)[C@@H](Cc2ccccc2)C(=O)N[C@@H](C(C)C)C(=O)O[C@H](C)[C@H](NC(=O)[C@H](CC(N)=O)NC(=O)[C@H](O)Cc2ccc(O)cc2)C(=O)N[C@@H](CC(C)C)C(=O)N[C@H]2CC[C@@H](OC)N1C2=O [Micropeptin KB992 (12), Micropeptin KB992]	0.87	inhibition of chymotrypsin, in words [1]: inhibition of chymotrypsin
CC[C@H](C)[C@@H]1NC(=O)[C@H](NC(=O)N[C@@H](CCCNC(=N)N)C(=O)O)CCCCNC(=O)[C@H]([C@@H](C)CC)NC(=O)[C@H](CCc2ccc(O)cc2)N(C)C(=O)[C@H](CCc2ccccc2)NC1=O [Anabaenopeptin KB906 (3), Anabaenopeptin KB906] ({Arg-CO}-[dK]I[hPhe][NMehTyr]I; lactam 1-C)	> 45.5	
CC(C)=CCN(CCCCNC(=O)C1CC2CCC(O)CC2N1C(=O)C(Cc1ccccc1)NC(=O)C(O)Cc1ccc(O)cc1)C(=N)N (centres unmarked) [Aeruginosin KB676 (1), Aeruginosin KB676]		inhibition of trypsin, in words [2]: weak inhibitory activity; IC50 ([1]; concentration range 45.5 μM to 0.011 μM, read-out: Chymotrypsin (IC50 in μM)): > 45.5 µM
CCCCCC(=O)N[C@@H](CC(=O)OC)C(=O)N[C@@H]1C(=O)N[C@@H](CCCNC(=N)N)C(=O)N[C@H]2CC[C@@H](O)N(C2=O)[C@@H](C(C)C)C(=O)N(C)[C@@H](Cc2ccccc2)C(=O)N[C@@H]([C@@H](C)CC)C(=O)O[C@@H]1C [Micropeptin KB970A (7), Micropeptin KB970A]	> 45.5	
CC(C)C[C@@H]1NC(=O)[C@@H]2CCCN2C(=O)[C@H](C)NC(=O)[C@H](CCC(N)=O)NC(=O)[C@H](C)NC(=O)[C@H](Cc2ccccc2)NC(=O)[C@H](Cc2ccccc2)NC(=O)[C@H](Cc2ccccc2)NC1=O [Microphycin KB921 (2), Microphycin KB921] (cyclo(APLFFFAQ))	> 45.5	
CCCCCC(=O)N[C@@H](CC(=O)OC)C(=O)N[C@@H]1C(=O)N[C@@H](CCCNC(=N)N)C(=O)N[C@H]2CC[C@@H](OC)N(C2=O)[C@@H](C(C)C)C(=O)N(C)[C@@H](Cc2ccccc2)C(=O)N[C@@H]([C@@H](C)CC)C(=O)O[C@@H]1C [Micropeptin KB984 (9), Micropeptin KB984]	> 45.5	
CCCC(=O)N[C@@H](CC(=O)O)C(=O)N[C@@H]1C(=O)N[C@@H](CCCNC(=N)N)C(=O)N[C@H]2CC[C@@H](O)N(C2=O)[C@@H](C(C)C)C(=O)N(C)[C@@H](Cc2ccccc2)C(=O)N[C@@H]([C@@H](C)CC)C(=O)O[C@@H]1C [Micropeptin KB928 (5), Micropeptin KB928]	> 45.5	
CCCCCC(=O)N[C@@H](CC(=O)OC)C(=O)N[C@@H]1C(=O)N[C@@H](CCCNC(=N)N)C(=O)N[C@H]2CC[C@@H](OC)N(C2=O)[C@@H](C(C)C)C(=O)N(C)[C@@H](Cc2ccccc2)C(=O)N[C@@H](C(C)C)C(=O)O[C@@H]1C [Micropeptin KB970C (10), Micropeptin KB970C]	> 45.5	
NC(N)=NCCCCNC(=O)[C@H]1C[C@H]2CC[C@@H](O)C[C@H]2N1C(=O)[C@@H](Cc1ccccc1)NC(=O)[C@H](O)Cc1ccc(O)cc1 [aeruginosin KT608B]		IC50 [3]: 1.3 µM
CCCCCC(=O)N[C@@H](CC(=O)OC)C(=O)N[C@@H]1C(=O)N[C@@H](CCCNC(=N)N)C(=O)N[C@H]2CC[C@@H](OC)N(C2=O)[C@@H]([C@@H](C)CC)C(=O)N(C)[C@@H](Cc2ccc(O)c(Cl)c2)C(=O)N[C@@H]([C@H](C)CC)C(=O)O[C@@H]1C [Micropeptin KB1048 (11), Micropeptin KB1048]	0.63	inhibition of chymotrypsin, in words [1]: inhibition of chymotrypsin
CCCC(=O)N[C@@H](CC(=O)OC)C(=O)N[C@@H]1C(=O)N[C@@H](CCCNC(=N)N)C(=O)N[C@H]2CC[C@@H](OC)N(C2=O)[C@@H](C(C)C)C(=O)N(C)[C@@H](Cc2ccccc2)C(=O)N[C@@H]([C@@H](C)CC)C(=O)O[C@@H]1C [Micropeptin KB956 (6), Micropeptin KB956]	> 45.5	
CC[C@H](C)[C@@H]1NC(=O)[C@H](Cc2ccccc2)N(C)C(=O)[C@H](C(C)C)N2C(=O)[C@H](CC[C@H]2O)NC(=O)[C@H](C[C@H]2C=C[C@H](O)CC2)NC(=O)[C@@H](NC(=O)[C@H](CCC(N)=O)NC(=O)[C@H](O)Cc2ccc(O)cc2)[C@@H](C)OC1=O [Micropeptin KB1046 (13), Micropeptin KB1046]	0.22	inhibition of chymotrypsin, in words [1]: inhibition of chymotrypsin
